Results: PubChem BioAssay AID624258 (Broad Institute, 2012)
Activity calls are given as the source filed them. The rule behind the calls is not given here.

Assay: Yeast SKN7 toxicity growth rescue counterscreen, Saccharomyces cerevisiae, plate reader, dose confirmatory (AID 624258);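 note: growth read after three days of incubation at 30 °C; 0% = median of neutral control wells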
Details: S. cerevisiae SKN7-toxicity growth rescue, plate reader; at 6.8 µM (top of the series)
In the case of `Cc1ccc2c(c1C)-c1c(ccc(C)c1C)C(=O)C2=O`, the growth rescue activity is reported as -4.89% (inactive).

Same assay, conditions: S. cerevisiae SKN7-toxicity growth rescue, plate reader; at 19.5 µM (top of the series)
With `O=C1C=C(N(CCO)Cc2ccccc2)c2ccccc2C1=O` the growth rescue activity was 12.2% (inactive).
For `CCCn1c(=O)c(C(=O)NCc2ccc(OC)c(OC)c2)c(O)c2ccccc21`, the growth rescue activity was -19.9% (inactive).
In the case of `Cc1cc(NC2=CC(=O)C(=O)c3ccccc32)no1`, the growth rescue activity is reported as -9.16% (inactive).
For `O=Nc1c(O)c2ccccc2c2ccccc12`, the growth rescue activity was -91.5% (inactive).
For `CCCC(C)Sc1nc2c([nH]1)c(=S)n(C)c(=O)n2C` (configuration not stated), the growth rescue activity was -31.9% (inactive).
With `FC(F)(F)Oc1ccc(NC(=S)Nc2ccc(OC(F)(F)F)cc2)cc1` the growth rescue activity was 26% (inactive).
For `CCCOc1ccc2ccccc2c1/C=C1\SC(=O)NC1=O`, the growth rescue activity was -39.3% (inactive).
With `Oc1c(C(Nc2ccccn2)c2ccccn2)ccc2cccnc12` (configuration not stated) the growth rescue activity was -61.4% (inactive).
With `C[C@]12CCC(=O)C=C1CCC1C2CC[C@@]2(C)C1CC[C@]2(C)O` (some centres not stated) the growth rescue activity was -16.5% (inactive).
For `Oc1c(C(Nc2ccccn2)c2cccnc2)cc(Cl)c2cccnc12` (configuration not stated), the growth rescue activity was -70.7% (inactive).
For `COc1ccc2c(c1)OC[C@H]1[C@H]2N2C(=O)c3cc(C)ccc3NC(=O)[C@@]2(C)[C@H]1c1ccccc1`, the growth rescue activity was 122% (inactive).
With `CN1CCN(C(c2ccccn2)c2cc(Cl)c3cccnc3c2O)CC1` (configuration not stated) the growth rescue activity was -64.1% (inactive).
In the case of `O=C(O)CSc1cc(NS(=O)(=O)c2ccc(Br)cc2)c2ccccc2c1O`, the growth rescue activity is reported as 30.5% (inactive).
With `Cc1nc2c(o1)C(=O)c1ccccc1C2=Nc1ccccc1` the growth rescue activity was -29.5% (inactive).
In the case of `O=C(c1ccccc1)c1coc2c1C(=O)c1ccccc1C2=O`, the growth rescue activity is reported as 18.2% (inactive).
In the case of `COC(=O)C1=NN(C(=O)c2cccc(Br)c2)C(O)(c2ccc(Cl)cc2)C1` (configuration not stated), the growth rescue activity is reported as -17.5% (inactive).
With `CCCCCCCCCCOC(=O)Cn1c(COc2ccccc2OC)[n+](C)c2ccccc21` the growth rescue activity was -82.3% (inactive).
In the case of `C[C@]12CC[C@H](O)CC1=CCC1C2CC[C@@]2(C)C1CC[C@@H]2NC(=O)[C@@H](N)Cc1cnc[nH]1` (some centres not stated), the growth rescue activity is reported as 26.3% (inactive).
With `C[C@]12CC[C@H](O)CC1=CCC1C2CC[C@@]2(C)C1CC[C@@H]2NC(=O)[C@@H](N)Cc1ccccc1` (some centres not stated) the growth rescue activity was 15.7% (inactive).
For `CCN(CC)C(=O)CSc1ncnc2sc(-c3ccccc3)cc12`, the growth rescue activity was -25.1% (inactive).
With `O=C(CC1CC2CCC1C2)Nc1nc(-c2ccccn2)cs1` (configuration not stated) the growth rescue activity was -53.4% (inactive).
With `O=C(N/N=C/c1cc(Cl)cc([N+](=O)[O-])c1O)c1ccccc1NS(=O)(=O)c1cccs1` the growth rescue activity was -5.73% (inactive).
With `Cc1ccoc1C(=O)Nc1cccc(Oc2ccccc2)c1` the growth rescue activity was -88.5% (inactive).
In the case of `c1ccc(-c2ccc(OCCCn3cncn3)cc2)cc1`, the growth rescue activity is reported as -51.8% (inactive).
With `S=C(Nc1ccc(Oc2ccccc2)cc1)NC1CCCCCC1` the growth rescue activity was -9.53% (inactive).
With `CC(=O)NC(=S)NNC(=O)C(c1ccccc1)c1ccccc1` the growth rescue activity was -30.2% (inactive).
For `O=C(CSc1ccc(-c2ccccn2)nn1)NCc1ccc(F)cc1`, the growth rescue activity was 1.05% (inactive).
For `Fc1ccc(N2CCN(c3ccc4c(C(F)(F)F)cc(C(F)(F)F)nc4n3)CC2)cc1`, the growth rescue activity was 53.6% (inactive).
In the case of `O=C(CSc1nccn(-c2cccc(F)c2)c1=O)Nc1ccc(Cl)cc1F`, the growth rescue activity is reported as 26.9% (inactive).
For `O=C(Nc1cc(Oc2ccc(Cl)cc2)cc([N+](=O)[O-])c1)c1ccco1`, the growth rescue activity was -42.9% (inactive).
For `COC(=O)c1cccc2c1NC(=O)C2=O`, the growth rescue activity was -14.3% (inactive).
In the case of `Cn1ccc(=Nc2ccc(NC(=O)c3ccc(N=c4ccn(C)c5ccc([N+](=O)[O-])cc45)cc3)cc2)cc1`, the growth rescue activity is reported as -76.1% (inactive).
For `Cc1cc(Cl)ccc1C(=O)C1CCCN(C(=O)c2cncs2)C1` (configuration not stated), the growth rescue activity was -54.3% (inactive).
With `COc1ccc(S(=O)(=O)Nc2cc(SCC(=O)O)c(O)c3ccccc23)cc1` the growth rescue activity was 4.66% (inactive).
With `Clc1nc(-c2ccccn2)nc2scc(-c3ccccc3)c12` the growth rescue activity was -76.2% (inactive).
For `Cc1cccc(Oc2cnn(C(C)(C)C)c(=O)c2Cl)c1`, the growth rescue activity was 1.29% (inactive).
With `COC(=O)C1=C(C)NC(C)=C(C(=O)OCC(C)C)C1c1ccccc1[N+](=O)[O-]` (configuration not stated) the growth rescue activity was -47.9% (inactive).
In the case of `COC(=O)/C(=C/Nc1ccc(O)cc1)[N+](=O)[O-]`, the growth rescue activity is reported as -10% (inactive).
With `CCOC(=O)N1C(=O)C2(CCCCC2)N(c2ccccc2Cl)C1=S` the growth rescue activity was -49.5% (inactive).
With `Cc1cccc(C)c1N1C(=O)C2ON(c3ccccc3)C(c3ccncc3)C2C1=O` (configuration not stated) the growth rescue activity was -56.4% (inactive).
For `CCCCCOc1ccc(CSc2n[nH]c(C)n2)cc1`, the growth rescue activity was -91.3% (inactive).
With `COc1ccc2[nH]c(=O)c(CN(Cc3cccnc3)C(=O)Nc3ccccc3)cc2c1` the growth rescue activity was -61.1% (inactive).
For `CCCCC(=O)NC(c1ccco1)c1cc(Cl)c2cccnc2c1O` (configuration not stated), the growth rescue activity was -45% (inactive).
For `Cc1csc(NC(=O)C(C)Oc2ccc(Cl)cc2C)n1` (configuration not stated), the growth rescue activity was 10.9% (inactive).
With `O=S1(=O)CCN2C(=N1)Sc1c2ccc2c1CCCC2` the growth rescue activity was 5.5% (inactive).
In the case of `COc1cc2cnc(-c3ccccc3)c(C(=O)c3ccc(F)cc3)c2cc1OC`, the growth rescue activity is reported as 2.41% (inactive).
With `COc1ccc2oc(=O)c(-c3csc(Nc4cccc(O)c4)n3)cc2c1` the growth rescue activity was 12.4% (inactive).
For `O=C(NC(=S)N(CCc1ccccc1)CCc1ccccc1)c1ccco1`, the growth rescue activity was -9.38% (inactive).
With `CCOC(=O)C1=C(C)NC(=O)C1CC(=O)O` (configuration not stated) the growth rescue activity was -16.2% (inactive).
With `CCOc1ccc(-c2[nH]ncc2Oc2cccc(OC)c2)c(O)c1` the growth rescue activity was -63.7% (inactive).
With `O=S(=O)(c1ccc(Oc2ccc(Br)cc2)cc1)N1CCOCC1` the growth rescue activity was 9.57% (inactive).
With `O=C(O)c1c(NC(=O)N2CCCC2)sc2c1CCCC2` the growth rescue activity was -88% (inactive).
For `O=C(/C(=N/N=C/c1ccc(O)c(O)c1O)c1ccccc1)c1ccccc1`, the growth rescue activity was -75.4% (inactive).
For `CC[n+]1c(/C=C/C=C/c2ccc(N(C)C)cc2)sc2ccccc21`, the growth rescue activity was -38.5% (inactive).
With `CCCCCCCn1c(=O)c(C(=O)OC)c(N)c2ccccc21` the growth rescue activity was -87.1% (inactive).
For `Oc1cccc(/C=N/N(Cc2ccccc2)c2ccccc2)c1`, the growth rescue activity was -91.5% (inactive).
For `CCCCCCCc1ccc(-c2ccc(O)cc2)nc1`, the growth rescue activity was -79.8% (inactive).
In the case of `CCCCCC1CCC(c2ccc(/C(N)=N/O)cc2)CC1` (configuration not stated), the growth rescue activity is reported as -61.8% (inactive).
For `Cc1cc(C(F)(F)F)n2[nH]c(=O)c(N=Nc3ccccc3)c2n1`, the growth rescue activity was -58.6% (inactive).
In the case of `Nc1nc(-c2ccccc2)c(-c2ccc([N+](=O)[O-])cc2)s1`, the growth rescue activity is reported as -79.9% (inactive).
For `C=CCOCCN(C)C1=NS(=O)(=O)c2cc([N+](=O)[O-])ccc21`, the growth rescue activity was -14.3% (inactive).
For `O=C1c2cc(F)ccc2-n2c1nc1ccccc1c2=O`, the growth rescue activity was -16.1% (inactive).
For `Cc1ccc(S(=O)(=O)/N=C2/C=C(Sc3ncn[nH]3)C(=O)c3ccccc32)cc1`, the growth rescue activity was 20.8% (inactive).
For `O=C(Nc1nnc(-c2cccs2)o1)c1cccc(Oc2ccccc2)c1`, the growth rescue activity was -6.4% (inactive).
With `Cc1ccc(-n2ncc(Br)c(Br)c2=O)cc1` the growth rescue activity was 23.6% (inactive).
For `N#Cc1c(-c2ccco2)c2c([nH]c1=S)CCCC2`, the growth rescue activity was -16.7% (inactive).
